Common to all, as to test: Bacterial susceptibility testing in liquid media (MIC)
Common to all, as to format: cell-based

The subject of one assay is Streptococcus pneumoniae. As to conditions: lowest concentration reducing growth by 80% or more, 37 degrees C., 24 hrs; for MIC SPN548: strain SPN548. How it is done: (§1) Compounds were tested for antimicrobial activity by susceptibility testing in liquid media. Compounds were dissolved in dimethylsulfoxide and tested in 10 doubling dilutions in the susceptibility assays. The organisms used in the assay were grown overnight on suitable agar media and then suspended in a liquid medium appropriate for the growth of the organism. The suspension was a 0.5 McFarland and a further 1 in 10 dilution was made into the same liquid medium to prepare the final organism suspension in 100 μL. Plates were incubated under appropriate conditions at 37 degrees C. for 24 hrs prior to reading. The Minimum Inhibitory Concentration was determined as the lowest drug concentration able to reduce growth by 80% or more.

For another assay, the system named is HIN446. Conditions: strain HIN446; lowest concentration reducing growth by 80% or more, 37 degrees C., 24 hrs. How it is done: as §1
A further assay relates to SAU516. Conditions: strain SAU516; lowest concentration reducing growth by 80% or more, 37 degrees C., 24 hrs. How it is done:
as §1

≈ marks a conversion by molar mass, not a printed value.

As to `CONC(=O)c1cnc(N2CC(NC(=O)c3[nH]c(C)c(Cl)c3Cl)C2)s1` [Example 8, 2-(3-{[(3,4-Dichloro-5-methyl-1H-pyrrol-2-yl)carbonyl]amino}azetidin-1-yl)-N-methoxy-1,3-thiazole-5-carboxamide], the MIC SPN548 with Streptococcus pneumoniae is 1 µg/mL (≈ 2.47 µM). The compound also showed an MIC HIN446 in the assay with HIN446 of 8 µg/mL (≈ 19.8 µM). The MIC SAU516 against SAU516 was found to be 8 µg/mL (≈ 19.8 µM).
Turning to `Cc1[nH]c(C(=O)NC2CN(c3ncc(C(=O)O)s3)C2)c(Cl)c1Cl` [Example 4, 2-(3-{[(3,4-Dichloro-5-methyl-1H-pyrrol-2-yl)carbonyl]amino}azetidin-1-yl)-1,3-thiazole-5-carboxylic acid], the MIC SPN548 against Streptococcus pneumoniae was found to be 4 µg/mL (≈ 10.7 µM). In addition, in the assay on HIN446, the MIC HIN446 was found to be 2 µg/mL (≈ 5.33 µM). The MIC SAU516 against SAU516 was 32 µg/mL (≈ 85.3 µM).
Consider `Cc1nc(N2CC(NC(=O)c3[nH]c(C)c(Cl)c3Cl)C2)sc1C(=O)O` [Example 5, 2-(3-{[(3,4-Dichloro-5-methyl-1H-pyrrol-2-yl)carbonyl]amino}azetidin-1-yl)-4-methyl-1,3-thiazole-5-carboxylic acid], for which the MIC SPN548 with Streptococcus pneumoniae amounted to 0.5 µg/mL (≈ 1.28 µM). The same compound came in with an MIC HIN446 against HIN446 of 0.5 µg/mL (≈ 1.28 µM). This compound showed an MIC SAU516 against SAU516 of 4 µg/mL (≈ 10.3 µM).
In the assay on Streptococcus pneumoniae (against Streptococcus pneumoniae), `CONC(=O)c1cc(N2CC(NC(=O)c3[nH]c(C)c(Cl)c3Cl)C2)nc(Cl)n1` [Example 9, 2-Chloro-6-(3-{[(3,4-dichloro-5-methyl-1H-pyrrol-2-yl)carbonyl]amino}azetidin-1-yl)-N-methoxypyrimidine-4-carboxamide] gave an MIC of 2 µg/mL (≈ 4.61 µM). The compound further registered an MIC SPN548 with Streptococcus pneumoniae of 2 µg/mL (≈ 4.61 µM). The MIC HIN446 with HIN446 was determined as 4 µg/mL (≈ 9.22 µM). The MIC SAU516 with SAU516 came out at 2 µg/mL (≈ 4.61 µM).

The MIC is the smallest concentration in the dilution series that meets the test's criterion for growth inhibition. A low value points to a more susceptible organism.

The values are drawn from patent US20090253671A1, “TRICYCLIC DERIVATIVES OF AZETIDINE AND PYRROLE WITH ANTIBACTERIAL ACTIVITY” (ASTRAZENECA AB, priority 2005, published 2009).
